Assay results as given in patent US7238493B2, “Acetylation of pRb by p300 assay method for compounds which modulate this process” (The University Court of the University of Glasgow, priority 2000, dated 2007).
Entries after “also recorded” stand apart in the source; their conditions may differ.

Tested on: pRb/MDM2 complex
Assay: pRb immunoprecipitation and anti-MDM2 immunoblot from TSA-treated T98G cells
Type: cell-based
Details: TSA 5 μM for 18-20 h, FIG. 4g
Method: Conversely, conditions that enhance acetylation would be expected to promote the interaction of pRb with MDM2. To this end, we treated T98G cells with trichostatin A (TSA), which blocks histone deacetylase (HDAC) activity 18 and thereafter assessed the interaction between pRb and MDM2.
For immunoprecipitation of endogenous acetylated pRb, cell pellets collected from SAOS2, U2OS, T98G, A31, and HEK293 cells were lysed in IPH buffer (50 mM Tris pH 8.0, 150 mM NaCl, 0.5% NP-40, protease inhibitor cocktail (Roche), 5mM EDTA, 5 μM TSA (Sigma)). The protein concentration of the extracts was determined by Bradford assay (BioRad). Protein-A-agarose was first incubated with anti-Rb antibody IF8 and C15 for 1-2 h at 4 C. […] Proteins bound to the beads were elute with 3×SDS loading buffer and analysed by Western blotting using appropriated antibodies. […]
Domains in E1A for p300-Dependent Acetylation of pRb and Acetylated pRb Binds to MDM2. • a) In vitro acetylation assay in which Flag-tagged p3001135-2414 (0.3 μg) together with GST-pRb (2 μg) was incubated with either wild-type GST-E1A, GST-Δ36 or GST-pm928 (1 μg) as indicated. The effect of the buffer (track 5) or GST (1 μg; track 1) alone was also assessed. The quantification of the level of p300 autoacetylation (b) and pRb acetylation (c) in the presence of the E1A derivatives is shown. […]

For CC(/C=C/C(=O)NO)=C\[C@@H](C)C(=O)c1ccc(N(C)C)cc1 [TSA, trichostatin A], the “interaction between pRb and MDM2 (pRb/MDM2 complex in pRb immunoprecipitate)” value was “presence of MDM2 in the pRb immunocomplex; also recorded: clearly detectable; also recorded: augments the interaction between pRb and MDM2”.
